Each structure is given as a SMILES string. pIC50: −log10 of the molar value. Some results are limits rather than exact numbers.

The values that follow come from patent US11325938B2, “CD73 inhibitors” (ORIC Pharmaceuticals, Inc., priority 2018, dated 2022).

This assay deals with CD73 (Homo sapiens (Human), UniProt P21589). The experiment in a line: Biochemical assay: inhibition of CD73 activity (AMP hydrolysis, Malachite Green readout). Particulars: CD73 0.3208 nM, AMP 15 μM, 25 mM Tris-HCl pH 7.4, RT, absorbance 620 nm. In short, it runs like this: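 Human CD73 (320 pM final) preincubated 15 min at RT with compounds (10-point ½-log titration from 100 μM, duplicates) in 25 mM Tris-HCl pH 7.4, 5 mM MgCl2, 0.01% Brij-35, 0.01% BSA. 15 μM AMP added, 10 min at RT; released phosphate read by Malachite Green absorbance; IC50 determined.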
Sequence of CD73 (P21589 27-574): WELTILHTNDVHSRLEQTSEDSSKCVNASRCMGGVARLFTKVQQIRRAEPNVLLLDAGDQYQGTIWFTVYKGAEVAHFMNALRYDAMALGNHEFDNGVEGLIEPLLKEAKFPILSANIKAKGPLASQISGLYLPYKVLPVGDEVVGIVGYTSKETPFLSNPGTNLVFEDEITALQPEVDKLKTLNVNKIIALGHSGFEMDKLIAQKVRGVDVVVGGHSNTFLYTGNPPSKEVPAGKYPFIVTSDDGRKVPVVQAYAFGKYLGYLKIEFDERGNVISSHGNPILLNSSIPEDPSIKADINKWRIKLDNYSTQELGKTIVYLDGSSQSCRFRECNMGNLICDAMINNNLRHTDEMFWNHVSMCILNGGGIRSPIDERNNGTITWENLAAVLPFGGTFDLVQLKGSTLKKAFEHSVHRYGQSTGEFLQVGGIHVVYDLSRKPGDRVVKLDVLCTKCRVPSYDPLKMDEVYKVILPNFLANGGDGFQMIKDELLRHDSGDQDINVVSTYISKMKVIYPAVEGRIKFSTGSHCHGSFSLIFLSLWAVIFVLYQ

Turning to `C[C@@](CO)(OC[C@H]1O[C@@H](n2ncc3c(NC4CC5(CCC5)C4)nc(Cl)nc32)[C@H](O)[C@@H]1O)P(=O)(O)O` [Example 126, ((R)-2-(((2R,3S,4R,5R)-5-(6-chloro-4-(spiro[3.3]heptan-2-ylamino)-1H-pyrazolo[3,4-d]pyrimidin-1-yl)-3,4-dihydroxytetrahydrofuran-2-yl)methoxy)-1-hydroxypropan-2-yl)phosphonic acid], the pIC50 (usually −log10 of the IC50, conventionally taken in molar units) was not below 7.00.
`O=P(O)(O)COC[C@H]1O[C@@H](n2nnc3c(NC4CCCC4)nc(Cl)cc32)[C@H](O)[C@@H]1O` [Example 20, ((((2R,3S,4R,5R)-5-(6-chloro-4-(cyclopentylamino)-1H-[1,2,3]triazolo[4,5-c]pyridin-1-yl)-3,4-dihydroxytetrahydrofuran-2-yl)methoxy)methyl)phosphonic acid] had a pIC50 of 6.00 to 7.00.
To `C[C@H](Nc1nc(Cl)nc2c1cnn2[C@@H]1O[C@H](COC(C)(CO)P(=O)(O)O)[C@@H](O)[C@H]1O)c1ccc(F)cc1` (mixture of isomers) [Example 183, rac-(2-(((2R,3S,4R,5R)-5-(6-chloro-4-(((S)-1-(4-fluorophenyl)ethyl)amino)-1H-pyrazolo[3,4-d]pyrimidin-1-yl)-3,4-dihydroxytetrahydrofuran-2-yl)methoxy)-1-hydroxypropane-2-yl)phosphonic acid] belongs not below 7.00.
To `O=P(O)(O)CS(=O)(=O)C[C@H]1O[C@@H](n2nnc3c(NC4CCCC4)cc(Cl)nc32)[C@H](O)[C@@H]1O` [Example 16, (((((2S,3S,4R,5R)-5-(5-Chloro-7-(cyclopentylamino)-3H-[1,2,3]triazolo[4,5-b]pyridin-3-yl)-3,4-dihydroxytetrahydrofuran-2-yl)methyl)sulfonyl)methyl)phosphonic acid] belongs not below 7.00.
The figure for `O=P(O)(O)[C@@](CO)(COCC1CC1)OC[C@H]1O[C@@H](n2ncc3c(NC4CCCC4)nc(Cl)nc32)[C@H](O)[C@@H]1O` (racemic) [Example 171, rac-((R)-2-(((2S,3R,4S,5S)-5-(6-chloro-4-(cyclopentylamino)-1H-pyrazolo[3,4-d]pyrimidin-1-yl)-3,4-dihydroxytetrahydrofuran-2-yl)methoxy)-1-(cyclopropylmethoxy)-3-hydroxypropan-2-yl)phosphonic acid] is not below 7.00; for `COCC(C)(OC[C@H]1O[C@@H](n2cnc3c(NC4CCCC4)nc(Cl)nc32)[C@H](O)[C@@H]1O)P(=O)(O)O` (stereo partly drawn) [Example 158, (2-(((2R,3S,4R,5R)-5-(2-chloro-6-(cyclopentylamino)-9H-purin-9-yl)-3,4-dihydroxytetrahydrofuran-2-yl)methoxy)-1-methoxypropan-2-yl)phosphonic acid] it is not below 7.00; for `C[C@@H](P(=O)(O)O)S(=O)(=O)C[C@H]1O[C@@H](n2ncc3c(NC4CCCC4)nc(Cl)nc32)[C@H](O)[C@@H]1O` [Example 6, ((S)-1-((((2S,3S,4R,5R)-5-(6-Chloro-4-(cyclopentylamino)-1H-pyrazolo[3,4-d]pyrimidin-1-yl)-3,4-dihydroxytetrahydrofuran-2-yl)methyl)sulfonyl)ethyl)phosphonic acid] it is not below 7.00.
For `COC[C@@H](OC[C@H]1O[C@@H](n2ncc3c(NC4CCCC4)nc(Cl)nc32)[C@H](O)[C@@H]1O)P(=O)(O)O` [Example 64, ((S)-1-(((2R,3S,4R,5R)-5-(6-chloro-4-(cyclopentylamino)-1H-pyrazolo[3,4-d]pyrimidin-1-yl)-3,4-dihydroxytetrahydrofuran-2-yl)methoxy)-2-methoxyethyl)phosphonic acid], the pIC50 is not below 7.00.
To `C[C@](CO)(OC[C@H]1O[C@@H](n2nnc3c(NC4CCCC4)cc(Cl)nc32)[C@H](O)[C@@H]1O)P(=O)(O)O` [Example 140, ((S)-2-(((2R,3S,4R,5R)-5-(5-chloro-7-(cyclopentylamino)-3H-[1,2,3]triazolo[4,5-b]pyridin-3-yl)-3,4-dihydroxytetrahydrofuran-2-yl)methoxy)-1-hydroxypropan-2-yl)phosphonic acid] belongs not below 7.00.
